Converted amounts (≈) assume the structure as drawn.
Test system: P388
Experiment: Cytotoxicity against mouse P388 cells
Type: functional
Details: read-out: ED50 (the source's name)

SMILES | EC50
C=C(C)[C@]12C[C@@H](C)[C@@]34O[C@](CCCCCCCCCCC)(O[C@@H]1[C@@H]3[C@@H]1O[C@]1(CO)[C@@H](O)[C@]1(O)C(=O)C(C)=C[C@H]14)O2 [MONTANIN] | 0.06 µg/mL (≈ 0.107 µM)
C=Cc1c(C)c(O)cc2c1CC[C@@H]1C(C)(C)[C@H](O)CC[C@@]21C [SPRUCEANOL] | 3.2 µg/mL (≈ 10.7 µM)

— ChEMBL document CHEMBL1158660, “Potential anticancer agents. XIV. Isolation of spruceanol and montanin from Cunuria spruceana (Euphorbiaceae)” (1979)
